{
  "source": "patent US20050054559A1",
  "about": "“Compounds for sustained release of orally delivered drugs” (priority 2000, published 2005)",
  "key": {"[1]": {"target": "T1, LBAT (Homo sapiens, UniProt Q14973)", "T1 sequence (Q14973 1-349)": "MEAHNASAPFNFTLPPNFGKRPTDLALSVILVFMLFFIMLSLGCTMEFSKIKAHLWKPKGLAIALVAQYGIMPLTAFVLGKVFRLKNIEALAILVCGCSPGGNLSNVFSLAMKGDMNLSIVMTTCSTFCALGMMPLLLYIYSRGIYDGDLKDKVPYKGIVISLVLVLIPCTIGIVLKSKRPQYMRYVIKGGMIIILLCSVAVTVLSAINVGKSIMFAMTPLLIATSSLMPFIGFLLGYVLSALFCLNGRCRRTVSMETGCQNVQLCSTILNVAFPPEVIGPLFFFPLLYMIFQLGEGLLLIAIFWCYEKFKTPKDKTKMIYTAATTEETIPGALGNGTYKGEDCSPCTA", "assay": "Electrogenic transport in Xenopus oocytes expressing LBAT", "type": "cell-based", "description": "(§1) RNA preparation: Human IBAT and LBAT Transporter cDNAs were subcloned into a modified pGEM plasmid that contains 5′ and 3′ untranslated sequences from the Xenopus β-actin gene. These sequences increase RNA stability and protein expression. Plasmid cDNA was linearized and used as template for in vitro transcription (Epicentre Technologies transcription kit, 4:1 methylated:non-methylated GTP).\n(§2) Xenopus oocyte isolation. Xenopus laevis frogs were anesthetized by immersion in Tricaine ([…] in deionized water) for 15 min. Oocytes were removed and digested in frog ringer solution (90 mM NaCl, 2 mM KCl, 1 mM MgCl2, 10 mM NaHEPES, pH 7.45, no CaCl2) with 1 mg/mL collagenase (Worthington Type 3) for 80-100 min with shaking. The oocytes were washed 6 times, and the buffer changed to frog ringer solution containing CaCl2 (1.8 mM). Remaining follicle cells were removed if necessary. Cells were incubated at 16° C., and each oocyte injected with […] RNA in […] solution.\nElectrophysiology measurements. Transport currents were measured 2-14 days after injection, using a standard two-electrode electrophysiology set-up (Geneclamp 500 amplifier, Digidata 1320/PCLAMP software and ADInstruments hardware and software were used for signal acquisition). Electrodes ([…]) were microfabricated using a Sutter Instrument puller and filled with 3M KCl. […]"}, "[2]": {"assay": "Secretion in bile following oral administration to bile duct-cannulated rats", "type": "in vivo, rat", "settings": "single oral dose of (4) 85.25 mg/kg", "description": "Sustained release of gabapentin from a prodrug that is subject to enterohepatic recirculation requires that a proportion of the intact prodrug be absorbed after oral administration and subsequently secreted into the bile intact. The potential for enterohepatic recirculation of intact (4) was examined in rats with indwelling bile duct fistulae. […] Bile was collected continuously in aliquots over 24 hours. Plasma and bile samples were frozen at −80° C. until analyzed. Concentrations of (4) or gabapentin in plasma samples were deermined by LC/MS/MS as described in Example 38. Concentrations of intact […] in bile were similarly deermined by LC/MS/MS. Bile (20 μL) was diluted 1:1000 with methanol and injected directly onto the HPLC system. Concentrations of (4) in bile reached a maximum at ˜6 hours post-dosing and were sustained up to 24 hours."}, "[3]": {"target": "IBAT (Homo sapiens, UniProt Q12908)", "sequence (Q12908 whole entry)": "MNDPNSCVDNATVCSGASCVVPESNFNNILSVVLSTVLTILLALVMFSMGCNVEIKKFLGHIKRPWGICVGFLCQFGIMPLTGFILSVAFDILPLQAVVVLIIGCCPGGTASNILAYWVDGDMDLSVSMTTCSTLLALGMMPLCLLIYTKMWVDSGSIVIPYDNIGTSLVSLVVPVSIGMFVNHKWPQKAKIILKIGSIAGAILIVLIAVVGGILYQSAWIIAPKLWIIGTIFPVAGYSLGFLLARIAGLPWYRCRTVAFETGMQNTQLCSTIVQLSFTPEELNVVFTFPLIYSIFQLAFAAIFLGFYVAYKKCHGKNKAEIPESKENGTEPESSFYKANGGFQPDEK", "assay": "Electrogenic transport in Xenopus oocytes expressing IBAT", "type": "cell-based", "description": "as §1, §2\nElectrophysiology measurements. Transport currents were measured 2-14 days after injection, using a standard two-electrode electrophysiology set-up (Geneclamp 500 amplifier, Digidata 1320/PCLAMP software and ADInstruments hardware and software were used for signal acquisition). Electrodes ([…]) were microfabricated using a Sutter Instrument puller and filled with 3M KCl. The bath was directly grounded (transporter currents were less than 0.3 μA). Bath flow was controlled by an automated perfusion system (ALA Scientific Instruments, solenoid valves).\nFor transporter pharmacology, oocytes were clamped at −60 to −90 mV, and continuous current measurements acquired using PowerLab Software and an ADInstruments digitizer. Current signals were lowpass filtered at 20 Hz and acquired at 4-8 Hz. All bath and drug-containing solutions were frog ringers solution containing CaCl2. Drugs were applied for 10-30 seconds until the induced current reached a new steady-state level, followed by a control solution until baseline currents returned to levels that preceded drug application. The difference current (baseline subtracted from peak current during drug application) reflected the net movement of charge resulting from electrogenic transport and was directly proportional to tranport rate. Recordings were made from a single oocyte for up to 60 min, enabling 30-40 separate compounds to be tested per oocyte. […]. Using this normalization procedure Vmax (i.e. maximal induced current) for different compounds tested on different oocytes could be compared."}},
  "data": [
    {"smiles": "CC(CCC(=O)NCC1(CC(=O)O)CCCCC1)C1CCC2C3C(O)CC4CC(O)CCC4(C)C3CC(O)C12C", "note": "(stereo not shown) [Compound (4)]", "values": [
      {"measurement": "EC50", "setting": "[1]", "value": 19, "unit": "µM"},
      {"measurement": "% Max. (GDC)", "setting": "[1]; relative to glycodeoxycholate", "value": 38, "unit": "%"},
      {"measurement": "concentrations of (4) in bile sustained up to", "setting": "[2]; bile duct-cannulated rats", "value": "up to 24 hours"},
      {"measurement": "time of maximum concentration of (4) in bile", "setting": "[2]; bile duct-cannulated rats, post-dosing", "value": "~6", "unit": "h"},
      {"measurement": "gabapentin in plasma of bile duct-cannulated rats", "setting": "[2]", "value": "no gabapentin was detected"},
      {"measurement": "EC50", "setting": "[3]", "value": 70, "unit": "µM"},
      {"measurement": "% Max. (GDC)", "setting": "[3]; relative to glycodeoxycholate", "value": 67, "unit": "%"}
    ]}
  ]
}
